From ChEMBL document CHEMBL1201862, “PubChem BioAssay data set” (2004)
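Compound exposure: 48 hours, 5 concentrations, 96-well plates. Abbreviation: GI50, concentration required for 50% inhibition of growth.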 The source made the active and inactive calls. No stated cut-off is given here; in the data, active = GI50 up to about 1.1 µM and inactive = higher.

Experiments:
Experiment in all cases: inhibition of tumour cell growth, NCI panel, 48 h
[1] = test system: 786-0
[2] = test system: A498
[3] = test system: CAKI-1
[4] = test system: DU-145
[5] = test system: HCC 2998
[6] = test system: HCT-116
[7] = test system: HCT-15
[8] = test system: HT-29
[9] = test system: Hs-578T
[10] = test system: IGROV-1
[11] = test system: K562
[12] = test system: KM12
[13] = test system: LOX IMVI
[14] = test system: MDA-MB-231
[15] = test system: NCI-H23
[16] = test system: OVCAR-3
[17] = test system: PC-3
[18] = test system: SK-MEL-2
[19] = test system: SK-MEL-5
[20] = test system: U-251

Row | SMILES | GI50 [1] | GI50 [2] | GI50 [3] | GI50 [4] | GI50 [5] | GI50 [6] | GI50 [7] | GI50 [8] | GI50 [9] | GI50 [10] | GI50 [11] | GI50 [12] | GI50 [13] | GI50 [14] | GI50 [15] | GI50 [16] | GI50 [17] | GI50 [18] | GI50 [19] | GI50 [20]
1 | CCOC(=O)NC | > 100 µM (inactive) | > 100 µM (inactive) | > 100 µM (inactive) | > 100 µM (inactive) | > 100 µM (inactive) | > 100 µM (inactive) | > 100 µM | > 100 µM (inactive) | > 100 µM (inactive) | > 100 µM (inactive) | > 100 µM (inactive) | > 100 µM (inactive) | > 100 µM (inactive) | > 100 µM (inactive) | > 100 µM (inactive) | > 100 µM (inactive) | > 100 µM (inactive) | > 100 µM (inactive) | > 100 µM (inactive) | > 100 µM (inactive)
2 | Cc1[nH]c2ccccc2c1-c1cc(-c2cc(-c3c(C)[nH]c4ccccc34)on2)no1 | 92 µM (inactive) | > 100 µM (inactive) | 76.2 µM (inactive) | > 100 µM (inactive) | 61 µM (inactive) | 44.3 µM (inactive) | 57.1 µM | 42.6 µM (inactive) | 37.2 µM (inactive) | 56.8 µM (inactive) | 56.6 µM (inactive) | 42.6 µM (inactive) | 55 µM (inactive) | > 100 µM (inactive) | > 100 µM (inactive) | 40.6 µM (inactive) | 63 µM (inactive) | > 100 µM (inactive) | 38.5 µM (inactive) | 77.8 µM (inactive)
3 | C=C1CCc2ccccc2C1=O | > 100 µM (inactive) | > 100 µM (inactive) | > 100 µM (inactive) | > 100 µM (inactive) | > 100 µM (inactive) | > 100 µM (inactive) | > 100 µM | 47.2 µM (inactive) | > 100 µM (inactive) | > 100 µM (inactive) | 37.9 µM (inactive) | > 100 µM (inactive) | – | > 100 µM (inactive) | > 100 µM (inactive) | > 100 µM (inactive) | > 100 µM (inactive) | > 100 µM (inactive) | > 100 µM (inactive) | > 100 µM (inactive)
4 | NC(=O)c1sc2nc3ccccc3n2c1N | 40 µM (inactive) | 63.1 µM (inactive) | 92.7 µM (inactive) | 84.9 µM (inactive) | 86.7 µM (inactive) | 74.1 µM (inactive) | > 100 µM | > 100 µM (inactive) | 46 µM (inactive) | 51.5 µM (inactive) | – | – | 36.1 µM (inactive) | 24.9 µM (inactive) | 17.4 µM (inactive) | > 100 µM (inactive) | > 100 µM (inactive) | 30.2 µM (inactive) | > 100 µM (inactive) | 28.2 µM (inactive)
5 | COCCN(C(C)=O)C1CCC2(SCCS2)c2[nH]c3ccccc3c21 (centres undefined) | > 100 µM (inactive) | > 100 µM (inactive) | > 100 µM (inactive) | > 100 µM (inactive) | > 100 µM (inactive) | > 100 µM (inactive) | > 100 µM | > 100 µM (inactive) | > 100 µM (inactive) | > 100 µM (inactive) | > 100 µM (inactive) | > 100 µM (inactive) | > 100 µM (inactive) | > 100 µM (inactive) | > 100 µM (inactive) | > 100 µM (inactive) | > 100 µM (inactive) | – | > 100 µM (inactive) | > 100 µM (inactive)
6 | C#CCOC(=O)C(N)CSSCC(N)C(=O)O (centres undefined) | > 100 µM (inactive) | > 100 µM (inactive) | > 100 µM (inactive) | > 100 µM (inactive) | > 100 µM (inactive) | > 100 µM (inactive) | > 100 µM | – | > 100 µM (inactive) | > 100 µM (inactive) | – | > 100 µM (inactive) | 65.9 µM (inactive) | > 100 µM (inactive) | > 100 µM (inactive) | – | > 100 µM (inactive) | > 100 µM (inactive) | > 100 µM (inactive) | > 100 µM (inactive)
7 | COC1=C2CC(C)CC(OC)C(OC(=O)CCCN)C(C)/C=C(\C)C(OC(N)=O)C(OC)/C=C\C=C(/C)C(=O)NC(=CC1=O)C2=O (centres undefined) | 3.68 µM (inactive) | 16.4 µM (inactive) | 10.7 µM (inactive) | 9.23 µM (inactive) | 10.1 µM (inactive) | 3.98 µM (inactive) | 4.97 µM | 2.43 µM (inactive) | 11.6 µM (inactive) | 7.08 µM (inactive) | 0.54 µM (active) | 10.3 µM (inactive) | 2.64 µM (inactive) | 9.16 µM (inactive) | 3.65 µM (inactive) | 3.2 µM (inactive) | 9.2 µM (inactive) | 12.1 µM (inactive) | 9.14 µM (inactive) | 18.5 µM (inactive)
8 | C=C1OC2OC(C)C(NC(=O)OCC(Cl)(Cl)Cl)C(OC(C)=O)C2O1 (centres undefined) | > 100 µM (inactive) | > 100 µM (inactive) | > 100 µM (inactive) | > 100 µM (inactive) | > 100 µM (inactive) | > 100 µM (inactive) | > 100 µM | > 100 µM (inactive) | > 100 µM (inactive) | > 100 µM (inactive) | > 100 µM (inactive) | > 100 µM (inactive) | > 100 µM (inactive) | > 100 µM (inactive) | > 100 µM (inactive) | > 100 µM (inactive) | > 100 µM (inactive) | – | > 100 µM (inactive) | > 100 µM (inactive)
9 | O=c1c2cc(Cl)cc(Cl)c2oc2nc3n(c(=O)c12)CCCS3 | > 100 µM (inactive) | > 100 µM (inactive) | > 100 µM (inactive) | > 100 µM (inactive) | > 100 µM (inactive) | > 100 µM (inactive) | > 100 µM | – | > 100 µM (inactive) | > 100 µM (inactive) | 76 µM (inactive) | > 100 µM (inactive) | – | > 100 µM (inactive) | > 100 µM (inactive) | 95.9 µM (inactive) | > 100 µM (inactive) | > 100 µM (inactive) | > 100 µM (inactive) | > 100 µM (inactive)
10 | COc1ccc(OC)c(C2CCc3c(cnc4nc(N)nc(N)c34)C2)c1 (centres undefined) | 4.48 µM (inactive) | 12.3 µM (inactive) | 14 µM (inactive) | 13.9 µM (inactive) | 12.3 µM (inactive) | 1.83 µM (inactive) | 5.42 µM | 2 µM (inactive) | 15.7 µM (inactive) | 2.29 µM (inactive) | 0.573 µM (active) | 11.4 µM (inactive) | 1.32 µM (inactive) | 12.2 µM (inactive) | – | 15.5 µM (inactive) | 8.2 µM (inactive) | 15.2 µM (inactive) | 11 µM (inactive) | 4.79 µM (inactive)
11 | [O-][S+](c1ccccc1)C1CC2CC3(CCC21O)OCCO3 (centres undefined) | > 100 µM (inactive) | > 100 µM (inactive) | > 100 µM (inactive) | > 100 µM (inactive) | > 100 µM (inactive) | – | > 100 µM | > 100 µM (inactive) | > 100 µM (inactive) | > 100 µM (inactive) | > 100 µM (inactive) | > 100 µM (inactive) | > 100 µM (inactive) | > 100 µM (inactive) | > 100 µM (inactive) | > 100 µM (inactive) | > 100 µM (inactive) | > 100 µM (inactive) | > 100 µM (inactive) | > 100 µM (inactive)
12 | OC(Cc1ccc2ccccc2n1)(C(F)(F)Cl)C(F)(F)Cl | > 10 µM (inactive) | > 10 µM (inactive) | > 10 µM (inactive) | > 10 µM (inactive) | > 10 µM (inactive) | > 10 µM (inactive) | > 10 µM | > 10 µM (inactive) | > 10 µM (inactive) | > 10 µM (inactive) | > 10 µM (inactive) | > 10 µM (inactive) | > 10 µM (inactive) | > 10 µM (inactive) | > 10 µM (inactive) | > 10 µM (inactive) | > 10 µM (inactive) | – | > 10 µM (inactive) | > 10 µM (inactive)
13 | CCOc1cc(/C=N\N(C)C)cc(/C=N\N(C)C)c1O | 42.7 µM (inactive) | 55.5 µM (inactive) | 18.3 µM (inactive) | > 100 µM (inactive) | 91.2 µM (inactive) | 90.6 µM (inactive) | 35.2 µM | 42.3 µM (inactive) | 29.7 µM (inactive) | – | > 100 µM (inactive) | > 100 µM (inactive) | 30.5 µM (inactive) | 43.1 µM (inactive) | > 100 µM (inactive) | 31.7 µM (inactive) | 33.2 µM (inactive) | 28.2 µM (inactive) | 22.1 µM (inactive) | 33.7 µM (inactive)
14 | COc1c(O)cc2c(c1O)C(=O)C1=C(CCCC1)C2=O | 17.3 µM (inactive) | 17.9 µM (inactive) | 27.5 µM (inactive) | 22.3 µM (inactive) | 21.9 µM (inactive) | 12.5 µM (inactive) | 26.1 µM | 21.7 µM (inactive) | 21.8 µM (inactive) | 12.6 µM (inactive) | – | 20.2 µM (inactive) | 14.7 µM (inactive) | 19 µM (inactive) | 15.5 µM (inactive) | 20.3 µM (inactive) | 22.8 µM (inactive) | 37.6 µM (inactive) | 23.9 µM (inactive) | 21 µM (inactive)
15 | COc1ccc(-c2oc3ccc(C)cc3c(=O)c2O)cc1 | 44.3 µM (inactive) | > 100 µM (inactive) | > 100 µM (inactive) | > 100 µM (inactive) | > 100 µM (inactive) | 52 µM (inactive) | 24.5 µM | > 100 µM (inactive) | > 100 µM (inactive) | > 100 µM (inactive) | – | > 100 µM (inactive) | > 100 µM (inactive) | 71.4 µM (inactive) | > 100 µM (inactive) | > 100 µM (inactive) | > 100 µM (inactive) | > 100 µM (inactive) | > 100 µM (inactive) | 28.6 µM (inactive)
